# From patent US20100136537A1, “PHOTORECEPTOR PRECURSOR CELLS” (THE REGENTS OF THE UNIVERSITY OF MICHIGAN, priority 2006, published 2010)
# B1: RPGR-ORF15 (retina-enriched RPGR-ORF15 isoform(s)) (protein, mouse, UniProt Q9R0X5-5 1-1305, looked up)
# chain: MAESESLVPDTGAVFTFGKTKFAENIPSKFWFKNDIPICLSCGDEHTAIVTGNNKLYMFGSNNWGQLGLGSKAAIIKPTCIKALKPEKVKLAACGRNHTLVSTDTGGVYAAGGNNEGQLGLGDTDDRDTFHQIVFFTPADTIKQLSAGANTSAALTEDGKLFMWGDNSEGQIGLEDKSNVCIPHEVTVGKPISWISCGYYHSAFVTMDGELYTFGEPENGKLGLPNELLMNHRSPQRVLGIPERVIQVACGGGHTVVLTEKVVYAFGLGQFGQLGLGTFLFETSEPKIIERIKDQKICHISCGENHTALMTELGLLYTFGDGRHGKLGLGMENFTNQFFPTLCSNFLRFAVQLIACGGCHMLVFATPRLGTIDEPKFEDVYEPYISTGSFSINDLSPRSSLNRSLSARLRRRERERPPCSASMVGTLPPLEGTSASTSAYFYPSSPPFHLSVNNYPEKSPSESMEPLDSDYFEDKMNKDTETENSSAVDSENFGETNDILNMTHMMTTSSNEKLLDFSPIQKQQNQDTFEKVMESTPCTENEDSYEYEEMSKIKEVTVYKQYLAKGIYMIRPAEILEAFSDEEVGNGLDQVEEPRVFTDGKGLQSKQVGKESDEEIVSEKKTEVMEVADVKKIRESEENSKSDSLFDDLPDKTMNSESEDNKDIAEERRSSEQNMTFDSETELVEEPDSYMECERHSEQDSAEELEQPKLVEYSSEEKDEKDEKDDDEVETENLWYDRNCTEQETENVFRATRFFPKFDLKHDHLSGIPEEQEGPEDSEGNVVVEQVVQAQKENLEFEGDRKEAKAEAPSDVITEKEVSESERESGGEREDRSEGDGDQICEKVSLETEHLQRAQGKQERKKGKDKRARCILDMKEREEDKGWEKGSEGGDKMKRDEGNQEKRKKEMEERDAGDERSEEEEGEEEEPEEGEKEEGGEEEEGTSEDQSREDEGDRQEKEGRREGKGRQEDGREGWKEGEEQEQEEEIEEGEEEEREGEEEGGEEEGEGEGEREEEGEGEEEGEGEEEGEGEEEGEGEEEGEGEEEGEGEEEGEGEEEGEGEEDGEGEEDGEGEEEGEGEEEGEREEDGEGEEDGEGEEEGEGEEEGEGEEEGEGEEEGEGEGEEEGEGEWEGEEEGEGEEEGEGEEEGEGEEEGEGEEEGEGEEEGGEDDEGEELEKKKGDITEEEEEEEEGQEGDEREREEHGSCEDDVEEDKTYDREEGEYKKAIGKVADNESQEDRKQSPKVSKINGSMKYGRHGTYSEKPITNLGKTQPSKMPMESRQLVENGLLGSERFWSDVLPLYLELK
# B2: Nephrocystin-5 (NPHP5) (other, mouse, UniProt Q8BP00 1-598, looked up)
# chain: MKPAGTDPRILSLAAEVAKSPEQNVPVILLKLKEIINNTPLGSSELKKVKQDIYCYDLIQYCLLVLSQDSSRIQGGWSTISQLTQILSHCCVGLEPGEDGEEFYKELLPSAAENFLILGRRLQTCFINATKGEEQDKLLHFFQIVTDSLFWLLGGHVQLIQNVLQSDHFLHLLQTDNVQIGASVMTLLQNILQINSGNLLKIEGKALHSILDEILFKLLSTPSPVIRSTATKLLLVLAESHQEILILLRLSACYKGLRSLLNKQETLTEFSRELRQLVDLLTPKIHQEVEEQKLHKAACLIQAYWKGFQTRKRLKKLPSAVIALQRSFRSKRTKMMLELNRQKEEEDLRLKLQLQRQRAMRLSRESRLNMLEIIHPGQVEKYNREMEEKSALTIQKHWRGYRERKNFRQQRPSLTEYKAAVTLQRAVLKFLAKCRKKKKLFASWHGLQELTDARRVELKQQVDDYVKRHPCSQMSEAASRELHAQAQERLQHYFMGRAIEERAQQHREALMAQISTNIEQLMKAPSLKEAEGKEPEQFLSRSRPVAAKAKQAHLTTLKHIQAPWWKKLGEEPGDEVDVPKDELSIDLGMLFIGGTKPP
# B3: nucleophosmin (NPM) (other, mouse, UniProt Q61937 1-292, looked up)
# chain: MEDSMDMDMSPLRPQNYLFGCELKADKDYHFKVDNDENEHQLSLRTVSLGAGAKDELHIVEAEAMNYEGSPIKVTLATLKMSVQPTVSLGGFEITPPVVLRLKCGSGPVHISGQHLVAVEEDAESEDEDEEDVKLLGMSGKRSAPGGGNKVPQKKVKLDEDDEDDDEDDEDDEDDDDDDFDEEETEEKVPVKKSVRDTPAKNAQKSNQNGKDLKPSTPRSKGQESFKKQEKTPKTPKGPSSVEDIKAKMQASIEKGGSLPKVEAKFINYVKNCFRMTDQEAIQDLWQWRKSL
# Key:
# [1] = target: T1, mGluR8 (Mus musculus, UniProt P47743); test: Calcium imaging (Fura Red) of whole-mount transplanted retinas, mGluR8 stimulation; assay type: cell-based; settings: for changes in intracellular calcium ([Ca2+]i) on agonist application: recipient and Nrl.gfp-positive integrated rod cells, DCPG 20 μM in bath
# T1 construct: from tissue; host or cells: whole-mount mouse neural retina; integrated Nrl.gfp-positive donor rods and recipient photoreceptors
# T1 sequence (P47743 34-908): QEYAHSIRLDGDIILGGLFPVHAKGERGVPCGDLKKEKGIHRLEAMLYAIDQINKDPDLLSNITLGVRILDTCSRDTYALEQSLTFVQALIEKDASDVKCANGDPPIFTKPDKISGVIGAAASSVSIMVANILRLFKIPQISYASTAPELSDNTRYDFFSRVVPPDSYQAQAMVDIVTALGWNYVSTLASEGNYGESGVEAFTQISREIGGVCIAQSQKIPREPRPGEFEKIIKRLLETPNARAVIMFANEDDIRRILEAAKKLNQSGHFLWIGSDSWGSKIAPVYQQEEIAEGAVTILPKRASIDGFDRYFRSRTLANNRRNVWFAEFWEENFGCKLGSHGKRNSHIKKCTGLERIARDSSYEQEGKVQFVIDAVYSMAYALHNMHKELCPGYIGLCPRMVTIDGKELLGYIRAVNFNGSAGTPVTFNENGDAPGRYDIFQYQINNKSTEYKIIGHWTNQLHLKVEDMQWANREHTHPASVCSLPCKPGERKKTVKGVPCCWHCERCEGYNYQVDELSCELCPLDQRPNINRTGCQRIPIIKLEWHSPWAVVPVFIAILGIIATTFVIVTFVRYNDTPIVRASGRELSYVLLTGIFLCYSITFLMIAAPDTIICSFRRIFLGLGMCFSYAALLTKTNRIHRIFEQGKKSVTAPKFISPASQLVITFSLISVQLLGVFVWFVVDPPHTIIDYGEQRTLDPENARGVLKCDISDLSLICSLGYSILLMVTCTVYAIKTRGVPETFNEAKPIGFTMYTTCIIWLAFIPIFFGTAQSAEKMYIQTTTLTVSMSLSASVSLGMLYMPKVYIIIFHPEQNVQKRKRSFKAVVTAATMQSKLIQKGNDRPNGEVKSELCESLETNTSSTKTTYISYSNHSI
# Procedure: (§1) Calcium Imaging. Retinas transplanted with Nrl.gfp^+/+ P1 cells were dissected free of all surrounding tissue. Whole-mount neural retinas were loaded with Fura Red-AM (15 μM, Molecular Probes) and the dispersant Cremophor-EL (0.03%, Sigma) for 1.5 hrs at 36° C. and then de-esterified in fresh DMEM-F12 (without phenol red) for 30 mins at 36° C. Retinas were transferred to the stage of an inverted microscope (SP2, Leica, UK) and held flat under a nylon-strung platinum wire ‘harp’. XY images were taken through the cell bodies in the inner region of the ONL, nearest the outer plexiform layer, where rod (as opposed to cone, which lie at the outer edge of the ONL) photoreceptor nuclei reside. Images were acquired at 3 sec intervals and analysed off-line. Cells were selected at random and the mean fluorescence of individual cells was calculated and normalised against the fluorescence at time 0s. Drugs were applied by micro-pipette injection into the bathing solution.
# (§2) Drugs. DCPG ((S)-3,4-dicarboxyphenylglycine) (20 μM; final concentration in bath), CPPG ((RS)-alpha-cyclopropyl-4-phosphonophenylglycine) (100 μM) and NMDA (N-methyl-D-aspartate) (200 μM) were supplied by Tocris (UK).
# [2] = system: NRL; test: NRL expression in serum-starved Y79 cells (immunoblot, Northern blot); assay type: cell-based, human; settings: for NRL expression (immunoblot): 24 h incubation
# Procedure: Cell Culture. Y79 human retinoblastoma cells (ATCC HTB 18) and HEK293 (ATCC CRL-1573) were maintained in RPMI 1640 and Dulbecco's modified Eagle's medium, respectively, under standard conditions with 15% (v/v) fetal bovine serum (FBS), penicillin G (100 units/ml), and streptomycin (100 μg/ml) at 37° C. and 5% CO2. For serum starvation and RA treatment experiments, Y79 cells (5×10^4) were cultured in the presence or absence of the serum (same batch of serum was used in all the experiments), at RA, 9-cis-RA, cycloheximide (CHX), and 4-(E-2-(5,6,7,8-tetrahydro-5,5,8,8-tetramethyl-2-naphthalenl)-1-propenyl) benzoic acid (TTNPB) at indicated concentrations. Me2SO or ethanol was added to Y79 cells in lieu of the soluble factors as negative control.
# For protein synthesis inhibition experiments, Y79 cells were serum-starved for 24 h, and then simultaneously treated with RA and CHX for 8 or 24 h. NRL expression was analyzed by immunoblotting. In another set of experiments, serum-starved Y79 cells were first incubated with RA alone for 8 or 24 h and then CHX was added. Cell extracts were then analyzed 24 h later for examining NRL expression by immunoblotting.
# Protein Expression Analysis.
# [3] = system: NMDA receptor; test: Calcium imaging (Fura Red) of whole-mount transplanted retinas, NMDA receptor agonist; assay type: cell-based, mouse; settings: NMDA 200 μM; photoreceptors
# Procedure: as §1, §2
# [4] = target: ΔCEP290 (truncated CEP290 of the rd16 mouse, in-frame deletion of amino acid residues 1599-1897) (mouse) (UniProt Q6A078); test: co-immunoprecipitation with ORF15^CP antibody from rd16 vs WT retinal extract, immunoblot for CEP290
# [5] = target: T2, CEP290 (wild-type mouse centrosomal protein CEP290, endogenous, retina) (mouse, UniProt Q6A078 1-2472); test: co-immunoprecipitation from retinal extracts, immunoblot
# T2 construct: range 1-2472; Endogenous protein in retinal extracts; alternatively spliced lower-mass isoforms are also mentioned; also called WT protein; full-length CEP290
# T2 sequence (Q6A078 whole entry, canonical isoform): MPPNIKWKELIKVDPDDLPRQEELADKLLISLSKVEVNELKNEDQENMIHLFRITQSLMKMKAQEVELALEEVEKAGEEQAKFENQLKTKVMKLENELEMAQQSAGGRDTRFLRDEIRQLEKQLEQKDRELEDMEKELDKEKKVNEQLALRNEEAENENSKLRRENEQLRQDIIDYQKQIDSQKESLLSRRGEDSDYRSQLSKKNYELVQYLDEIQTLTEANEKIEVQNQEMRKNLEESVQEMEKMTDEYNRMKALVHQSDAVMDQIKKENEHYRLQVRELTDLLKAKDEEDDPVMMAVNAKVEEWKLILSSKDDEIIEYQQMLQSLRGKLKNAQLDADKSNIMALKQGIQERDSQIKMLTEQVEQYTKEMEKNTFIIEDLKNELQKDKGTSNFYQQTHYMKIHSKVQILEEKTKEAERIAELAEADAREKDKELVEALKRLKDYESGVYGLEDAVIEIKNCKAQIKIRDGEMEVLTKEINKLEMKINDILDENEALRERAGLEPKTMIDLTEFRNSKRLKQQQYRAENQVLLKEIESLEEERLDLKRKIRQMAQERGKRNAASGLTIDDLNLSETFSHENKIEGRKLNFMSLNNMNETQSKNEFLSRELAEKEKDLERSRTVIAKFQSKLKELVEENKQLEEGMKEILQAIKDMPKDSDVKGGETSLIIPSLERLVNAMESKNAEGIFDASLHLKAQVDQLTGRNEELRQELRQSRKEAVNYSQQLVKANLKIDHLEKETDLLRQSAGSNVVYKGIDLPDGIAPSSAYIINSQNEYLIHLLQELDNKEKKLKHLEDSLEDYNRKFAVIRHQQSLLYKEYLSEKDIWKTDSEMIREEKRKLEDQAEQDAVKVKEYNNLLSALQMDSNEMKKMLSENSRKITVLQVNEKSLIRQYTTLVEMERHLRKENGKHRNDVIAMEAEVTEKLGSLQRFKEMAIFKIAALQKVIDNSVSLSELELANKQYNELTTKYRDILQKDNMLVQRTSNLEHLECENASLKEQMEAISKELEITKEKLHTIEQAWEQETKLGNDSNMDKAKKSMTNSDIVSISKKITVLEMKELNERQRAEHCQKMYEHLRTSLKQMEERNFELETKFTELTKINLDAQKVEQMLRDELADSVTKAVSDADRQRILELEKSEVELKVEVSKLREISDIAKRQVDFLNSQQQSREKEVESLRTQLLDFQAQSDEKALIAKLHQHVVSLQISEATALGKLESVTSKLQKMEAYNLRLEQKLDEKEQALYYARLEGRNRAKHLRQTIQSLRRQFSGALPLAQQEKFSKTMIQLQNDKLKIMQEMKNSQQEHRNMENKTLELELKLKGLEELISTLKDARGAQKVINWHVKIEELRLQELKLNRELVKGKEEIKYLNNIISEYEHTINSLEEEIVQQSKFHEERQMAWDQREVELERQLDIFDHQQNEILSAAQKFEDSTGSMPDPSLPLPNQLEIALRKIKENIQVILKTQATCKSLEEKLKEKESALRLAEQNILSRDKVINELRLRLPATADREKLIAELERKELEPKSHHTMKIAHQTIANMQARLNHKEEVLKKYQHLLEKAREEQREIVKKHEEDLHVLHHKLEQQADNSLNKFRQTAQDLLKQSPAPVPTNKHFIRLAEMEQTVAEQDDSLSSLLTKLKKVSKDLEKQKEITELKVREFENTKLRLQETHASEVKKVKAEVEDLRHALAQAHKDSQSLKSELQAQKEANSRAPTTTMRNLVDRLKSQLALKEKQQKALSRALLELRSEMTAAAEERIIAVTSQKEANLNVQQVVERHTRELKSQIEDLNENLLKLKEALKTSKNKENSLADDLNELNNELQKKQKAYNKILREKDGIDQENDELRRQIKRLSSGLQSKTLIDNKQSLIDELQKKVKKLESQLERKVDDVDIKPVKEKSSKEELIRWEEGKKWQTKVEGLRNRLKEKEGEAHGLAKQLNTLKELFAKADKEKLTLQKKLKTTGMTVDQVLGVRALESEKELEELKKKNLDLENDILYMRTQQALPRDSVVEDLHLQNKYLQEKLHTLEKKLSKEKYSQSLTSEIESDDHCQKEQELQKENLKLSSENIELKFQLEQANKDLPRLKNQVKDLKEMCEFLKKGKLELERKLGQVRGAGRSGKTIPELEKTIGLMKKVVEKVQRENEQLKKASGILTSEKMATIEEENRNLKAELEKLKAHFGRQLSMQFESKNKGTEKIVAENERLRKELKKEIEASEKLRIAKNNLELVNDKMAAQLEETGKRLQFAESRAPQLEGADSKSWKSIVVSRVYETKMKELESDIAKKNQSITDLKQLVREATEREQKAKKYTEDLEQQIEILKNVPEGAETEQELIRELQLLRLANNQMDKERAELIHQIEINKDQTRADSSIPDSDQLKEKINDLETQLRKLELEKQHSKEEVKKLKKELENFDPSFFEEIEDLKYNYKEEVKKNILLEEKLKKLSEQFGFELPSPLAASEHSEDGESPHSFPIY
molecule,measurement,setting,value
"NC(C(=O)O)(c1ccc(P(=O)(O)O)cc1)C1CC1 (racemic) [CPPG, (RS)-alpha-cyclopropyl-4-phosphonophenylglycine]",block of the mGluR8 agonist-evoked [Ca2+]i change,[1]; CPPG 100 μM,can be blocked
"CC1=C(/C=C/C(C)=C\C=C\C(C)=C\C(=O)O)C(C)(C)CCC1 [9-cis RA, 9-cis-RA]",NRL expression (immunoblot),[2]; serum-starved Y79 cells,dose-dependent increase in NRL expression
"C[C@@H]1C[C@@H]([C@H](O)CC2CC(=O)NC(=O)C2)C(=O)[C@@H](C)C1 [CHX, cycloheximide]","effect on RA-mediated NRL induction, added simultaneously with RA","[2]; CHX 20 μg/ml with at RA, serum-starved Y79 cells",blocked NRL induction
same,"effect on NRL expression, added after RA pretreatment","[2]; cells pretreated with RA for 8 or 24 h, then CHX",no detectable effect on NRL expression
"N[C@H](C(=O)O)c1ccc(C(=O)O)c(C(=O)O)c1 [DCPG, (S)-3,4-dicarboxyphenylglycine]",changes in intracellular calcium ([Ca2+]i) on agonist application,[1],consistently evoked changes in ([Ca^2+]i)
"CN[C@H](CC(=O)O)C(=O)O [NMDA, N-methyl-D-aspartate]",effect of NMDA receptor agonist on [Ca2+]i,[3],showed no effect
"C/C(=C\c1ccc(C(=O)O)cc1)c1ccc2c(c1)C(C)(C)CCC2(C)C [TTNPB, 4-(E-2-(5,6,7,8-tetrahydro-5,5,8,8-tetramethyl-2-naphthalenl)-1-propenyl) benzoic acid]",NRL expression (immunoblot),[2]; serum-starved Y79 cells,mimicked
N[C@@H](CCC(=O)O)C(=O)O [glutamate],changes in intracellular calcium ([Ca2+]i) on agonist application,[1],consistently evoked changes in ([Ca^2+]i)
B1,fold higher level co-immunoprecipitated compared with the WT protein,[4],50 times
B2,binding result,[5],no binding
B3,binding result,[5],no binding
